Source: patent US8536132B2, “Lymphatic zip codes in tumors and pre-malignant lesions” (Sanford-Burnham Medical Research Institute, priority 2006, dated 2013)
“Also recorded” adds a separate entry of the source. Marks after values point to notes of the source that are not given here.

Key:
[1] = system: cell suspension derived from pre-malignant prostate lesions; assay: Phage binding to cell suspension derived from pre-malignant prostate lesions; type: cell-based, mouse; details: phage clones
Description: (§1) An NNK-encoded CX7C library display on T7Select415-1 phage (Novagen) was prepared as previously described (Laakkonen et al., 2002). Phage selection and validation have been described (Hoffman, 2004). A two-step procedure was designed for the selection of peptides targeting the tumor lymphatic vessels of pre-malignant prostate lesions and prostate tumor. First, the phage library was incubated with cells derived from normal prostate to subtract the phage that bind to normal prostate. Second, the anti-podoplanin magnetic beads were used to isolate lymphatic endothelial cells. 2-3 rounds of ex vivo selection and 2-3 rounds of in vivo selections were performed. For the ex vivo selections, cell suspensions were prepared from normal prostates of tumor-free littermates of TRAMP mice, pre-malignant prostates of 14- to 16-week-old TRAMP mice, and tumor tissues of 25- to 28-week-old TRAMP mice. Collagenase IA (1 mg/ml, Sigma) was used to disperse the tissues. About 1×10^7 normal prostate cells were incubated at 4° C. for 3 hrs with […] plaque forming units (pfu) of T7 phage displaying a CX7C peptide library. The samples were centrifuged at 1200 rpm for 10 min, the supernatant (the normal prostate-subtracted phage library) was recovered and then incubated overnight at 4° C. with 5×10^7 cells derived from pre-malignant prostate tissue or prostate tumor. The cells were washed to remove unbound phage, incubated with rat anti-mouse podoplanin for 45 min at 4° C., and washed three times with cold PBS containing 0.5% BSA. Podoplanin-positive cells were then isolated using M450 sheep anti-rat IgG Dynabeads (M450; Dynal, Oslo, Norway). Phage that bound to the podoplanin-positive cell population were rescued and amplified in E. coli. In vivo phage library screening was performed as described (Laakkonen et al., 2002).

[2] = system: MMTV-PyMT premalignant lesions; assay: In vivo phage homing to MMTV-PyMT premalignant lesions; design: species or system mouse
Description: (§2) The following cell lines were maintained in DMEM supplemented with 10% FCS: C8161 human melanoma, MDA-MB-435 human breast cancer, KRIB human osteosarcoma, and human prostate cancer cells PPC1, DU145. LNCaP human prostate cancer cell line was grown in RPMI 1640 medium with 10 mM HEPES, 1 mM sodium pyruvate and 1.5 g/L sodium bicarbonate supplemented with 10% FCS. M12 human prostate cancer cell line was cultured in RPMI 1640 with 5 μg/ml insulin-transferrin-sodium selenite (ITS), 2.5 μg/ml fungizone, 50 μg/ml gentamycin, 0.2 μM dexamethasone, 10 ng/ml epidermal growth factor (EGF), and 5% FCS (Bae et al., 1998). To produce tumors, nude BALB/c and C56BL/6 mice were subcutaneously (C8161, KRIB, and PPC1) or orthotopically ([…], PPC1, DU145, M12, and LNCaP) injected with 1×10^6 tumor cells. Transgenic mouse tumor models included TRAMP prostate cancer, MMTV-PyMT breast cancer, and K14-HPV16 cervical cancer. To initiate cervical carcinogenesis, female K14-HPV16 mice (Arbeit et al., 1994) were treated with 17β-estradiol (E2; (Arbeit et al., 1996; Giraudo et al., 2004). Briefly, one-month-old virgin female transgenic (heterozygous K14-HPV16, 1203#1) and nontransgenic (FVB/n) mice were anesthetized with isoflurane, and continuous release pellets that deliver E2 at doses of 0.05 mg over 60 days (Innovative Research of America, Sarasota, Fla., USA) were implanted subcutaneously in the dorsal back skin. Subsequent pellets were implanted at 3 and 5 months of age for a total of 6 months of hormone treatment. K14-HPV16 mice were maintained in the FVB/n background (FVB/n; The Jackson Laboratory). The mice were maintained in accordance with the University of California, San Francisco (UCSF) institutional guidelines governing the care of laboratory mice. The animal experimentation was approved by Animal Research Committees at UCSF or The Burnham Institute.
(§3) In vivo homing specificity of phage was tested as described (Hoffman, 2004). Briefly, mice bearing tumors were anesthetized and intravenously injected with 5×10^9 pfu of phage. […]

[3] = system: K14-HPV16/E2 and MMTV-PyMT lesions and tumors; assay: Fluorescent AGR peptide homing to lesions and tumors of K14-HPV16/E2 and MMTV-PyMT mice; type: in vivo, mouse
Description: (§4) The frozen sections were prepared for immunohistological analysis.

C8161 xenografts = assay: In vivo phage homing to C8161 xenograft tumors; design: species or system mouse
Description: as §2
(§5) In vivo homing specificity of phage was tested as described (Hoffman, 2004). Briefly, mice bearing tumors were anesthetized and intravenously injected with 5×10^9 pfu of phage. After 7 min, the mice were perfused through the heart with PBS containing 0.5% BSA. The tumor and control organs were dissected from each mouse and the phage were rescued and tittered. For histology analysis, the mice were perfused with 4% PFA 30 min after the injection of phage. Tissues were embedded in Tissue-Tek O.C.T. and 5 μm sections were prepared for phage immunostaining.

K14-HPV16 skin cancer = assay: In vivo homing to K14-HPV16 skin cancer; design: species or system mouse
Description: as §2, §5

[4] = system: K14-HPV16/E2 cervical lesions; assay: Distribution of fluorescent peptides in K14-HPV16/E2 mice with cervical lesions; type: in vivo, mouse; details: labeled peptide i.v.
Description: as §4

[5] = system: MDA-MB-435 orthotopic xenografts; assay: In vivo phage homing to MDA-MB-435 orthotopic xenografts; design: species or system mouse
Description: as §2, §5

[6] = system: tumor derived cell suspensions (TRAMP); assay: Phage binding to TRAMP tumor derived cell suspensions; type: cell-based, mouse; details: phage clones
Description: as §1

[7] = system: M12 orthotopic xenografts; assay: In vivo phage homing to M12 orthotopic xenografts; design: species or system mouse; details: for phage homing to M12 xenografts (in words): i.v. injected phage
Description: as §2, §5

PPC1 s.c. xenografts = assay: In vivo phage homing to PPC1 s.c. xenografts; design: species or system mouse
Description: as §2, §3

[8] = system: DU145 orthotopic xenografts; assay: In vivo phage homing to DU145 orthotopic xenografts; design: species or system mouse; details: for phage homing to DU145 xenografts (in words): i.v. injected phage
Description: as §2, §5

[9] = system: LNCaP orthotopic xenografts; assay: In vivo phage homing to LNCaP orthotopic xenografts; design: species or system mouse; details: for phage homing to LNCaP xenografts (in words): i.v. injected phage
Description: as §2, §5

KRIB xenografts = assay: In vivo phage homing to KRIB xenografts; design: species or system mouse
Description: as §2, §5

[10] = system: PPC1 tumor-derived cell suspensions; assay: REA phage binding to PPC1 tumor-derived cell suspensions; type: cell-based; details: listed as REA-phage
[11] = phage homing in vivo, MMTV-PyMT premalignant lesions
[12] = phage homing in vivo, C8161 (s.c.) xenografts
[13] = phage homing in vivo, K14-HPV16 skin cancer
[14] = phage homing in vivo, MDA-MB-435 orthotopic xenografts
[15] = phage homing in vivo, M12 orthotopic xenografts
[16] = phage homing in vivo, PPC1 s.c. xenografts
[17] = phage homing in vivo, DU145 orthotopic xenografts
[18] = phage homing in vivo, LNCaP orthotopic xenografts
[19] = phage homing in vivo, KRIB xenografts

Sequence: CAGRRSAYC [homing peptide for pre-malignant TRAMP prostate lesions]
- binding to cell suspension from pre-malignant prostate lesions (in words) [1]: bound
- phage homing to MMTV-PyMT premalignant lesions (in words) ([2]; i.v. injected phage): little homing of the phage
- Fold over control phage [2, 11]: 2 fold
- Specific Homing [2, 11]: No
- peptide binding to MMTV-PyMT dysplastic breast lesion [3]: weakly positive
- peptide homing to lesions or malignant tumors in K14-HPV16/E2 and MMTV-PyMT models [3]: no detectable homing of the peptide

Sequence: CREAGRKAC [homing peptide for prostate tumor lymphatics]
- phage homing to C8161 tumors (in words) (C8161 xenografts; i.v. injected phage, C8161 xenograft mice): negative for REA binding
- Fold over control phage (C8161 xenografts; [12]): 5 fold
- Specific Homing (C8161 xenografts; [12]): No
- homing to K14-HPV16 skin cancers (in words) (K14-HPV16 skin cancer; i.v. injection, K14-HPV16 mice): negative for REA binding
- Fold over control phage (K14-HPV16 skin cancer; [13]): 4 fold
- Specific Homing (K14-HPV16 skin cancer; [13]): No
- fluorescent peptide in K14-HPV16/E2 cervical lesions/tumors (in words) [4]: slightly positive
- phage homing to MDA-MB-435 tumors (in words) ([5]; i.v. injected phage): negative for REA binding
- Fold over control phage [5, 14]: 4 fold
- Specific Homing [5, 14]: No
- binding to TRAMP tumor derived cell suspensions (in words) [6]: robust binding
- phage homing to M12 xenografts (in words) ([7]; listed as REA phage): homed
- phage homing to M12 xenografts (in words) ([7]; listed as REA-phage): Significant phage homing
- Fold over control phage [7, 15]: 24 fold
- Specific Homing [7, 15]: Yes
- phage homing to subcutaneous PPC1 xenografts versus orthotopic (in words) (PPC1 s.c. xenografts; i.v. injected phage, 7 min circulation): homed less efficiently
- Fold over control phage (PPC1 s.c. xenografts; [16]): 6 fold
- Specific Homing (PPC1 s.c. xenografts; [16]): No
- phage homing to DU145 xenografts (in words) ([8]; listed as REA phage): homed
- phage homing to DU145 xenografts (in words) ([8]; listed as REA-phage): Significant phage homing
- Fold over control phage [8, 17]: 14 fold
- Specific Homing [8, 17]: Yes
- phage homing to LNCaP xenografts (in words) ([9]; listed as REA phage): homed
- phage homing to LNCaP xenografts (in words) ([9]; listed as REA-phage): Significant phage homing
- Fold over control phage [9, 18]: 20 fold
- Specific Homing [9, 18]: Yes
- phage homing to KRIB xenografts (in words) (KRIB xenografts; i.v. injected phage): negative for REA binding
- Fold over control phage (KRIB xenografts; [19]): 7^‡ fold
- Specific Homing (KRIB xenografts; [19]): Yes
- phage binding to PPC1 tumor-derived cell suspensions (in words) [10]: binds to cell suspensions derived from PPC1 tumors; also recorded: strongly bound
